Patent US10278942B2 (PELOTON THERAPEUTICS, INC., priority 2015, dated 2019)

What was measured:
[1] = system: rats with hypoxia/semaxanib induced pulmonary arterial hypertension; assay: Prevention of PAH by a HIF-2α inhibitor (Example 36)
Description: Two rats not exposed to either semaxanib or hypoxia served as hypertrophic sentinels for this study. Rats received a single injection of semaxanib (200 mg/kg, s.c.) on the same day as initiation of test article dosing and introduction to the hypoxic chamber. Rats were kept in hypoxic conditions for the duration of this study. On the twenty-eighth day of test article dosing, the rats were anesthetized with ketamine/xylazine for terminal monitoring of pulmonary and systemic arterial pressures along with heart rate. […]

[2] = system: rats with hypoxia/semaxanib induced pulmonary arterial hypertension; assay: Effect of HIF-2α inhibition in a model of active PAH (Example 37, interventional)
From the text: Rats were kept in hypoxic conditions for the duration of this study. On the fourteenth day of test article dosing, the rats were anesthetized with ketamine/xylazine for terminal monitoring of pulmonary and systemic arterial pressures along with heart rate. […]

[3] = prevention, 60/day bid oral 28 days, Mean ± SEM
[4] = prevention, Group 4, 30 mg/kg BID
[5] = active PAH, 60/day bid oral Days 15 to 28, Mean ± SEM
[6] = active PAH, Group 4, 60 mg/kg/day 14 days

For CCCc1nn(C)c2c(=O)[nH]c(-c3cc(S(=O)(=O)N4CCN(C)CC4)ccc3OCC)nc12 [sildenafil], which “RV/LV + S” value ([1]; Fulton's Index, prevention, 60/day bid oral 28 days, Mean ± SEM) is on record?
The value was 0.52 ± 0.04.

And the “Heart Wt” value [1, 3]?
Its value is 1.23 ± 0.03 g.

What about the “LV Wt” value [1, 3] of the same molecule?
The value was 0.71 ± 0.02 g.

And the “Lung Wt” value [1, 3]?
Its value is 2.39 ± 0.07 g.

And the MAP [1, 3]?
The MAP was 92 ± 2 mm Hg.

And the “Mean PAP” value [1, 3]?
Its value is 38 ± 3 mm Hg.

And the “RV Wt” value [1, 3]?
The value was 0.36 ± 0.03 g.

What about the RV/BW [1, 3] of the same molecule?
The RV/BW was 1.12 ± 0.10.

What about the “Systolic PAP” value [1, 3] of the same molecule?
The value was 55 ± 5 mm Hg.

And the “mean percentages of completely muscularized arterioles” value [1, 4]?
The value was 58.7%.

What about the “mean percentages of non-muscularized arterioles” value [1, 4] of the same molecule?
Its value is 1.1%.

What about the “mean percentages of partially muscularized arterioles” value [1, 4] of the same molecule?
Its value is 40.2%.

What about the “Group mean scores for smooth muscle hypertrophy” value ([1]; prevention, Group 4, 30 mg/kg BID, lung histopathology) of the same molecule?
The value was 3.4.

What about the “pulmonary arteriolar smooth muscle hypertrophy compared to vehicle” value ([1]; prevention, histopathology evaluation and arteriole counts) of the same molecule?
The value was “slight decrease”.

And the “protection versus vehicle (systolic pulmonary arterial pressure)” value ([1]; prevention, sildenafil group)?
The value was “showed protection versus vehicle”.

And the “heart rate compared to vehicle” value ([1]; rat, in vivo)?
The value was “No notable differences”.

And the HR ([1]; rat, in vivo, po)?
Its HR is 289 ± 11 bpm.

What about the “Heart Wt” value [2, 5] of the same molecule?
Its value is 1.25 g.

What about the “LV Wt” value [2, 5] of the same molecule?
Its value is 0.75 g.

What about the LW/BW [2, 5] of the same molecule?
Its LW/BW is 6.68.

And the “Lung Wt” value [2, 5]?
The value was 2.36 g.

And the MAP [2, 5]?
The MAP was 93 mm Hg.

And the “Mean PAP” value [2, 5]?
Its value is 36 mm Hg.

What about the “RV Wt” value [2, 5] of the same molecule?
Its value is 0.35 g.

And the RV/BW [2, 5]?
Its RV/BW is 0.98.

What about the “RV/LV + S” value [2, 5] of the same molecule?
Its value is 0.46.

What about the “Systolic PAP” value [2, 5] of the same molecule?
The value was 56 mm Hg.

What about the “Group mean scores for smooth muscle hypertrophy” value [2, 6] of the same molecule?
The value was 2.6.

And the “mean percentages of completely muscularized arterioles” value [2, 6]?
The value was 47.2%.

What about the “mean percentages of non-muscularized arterioles” value [2, 6] of the same molecule?
Its value is 1.1%.

What about the “mean percentages of partially muscularized arterioles” value [2, 6] of the same molecule?
The value was 51.7%.

What about the pulmonary hypertrophy ([2]; active PAH, compared to vehicle) of the same molecule?
Its pulmonary hypertrophy is “reductions in pulmonary hypertrophy”.

What about the “reduction in RV/BW ratio” value ([2]; active PAH, sildenafil 30 mg/kg twice daily, p<0.05) of the same molecule?
Its value is 21%.

What about the “heart rate compared to vehicle” value ([2]; rat, in vivo) of the same molecule?
Its value is “No substantive differences”.

And the “Body Weight” value ([2]; rat, in vivo, po)?
The value was 0.35 kg.

And the HR ([2]; rat, in vivo, po)?
Its HR is 298 bpm.
